# Experimental data from US20060025485A1, “Hydroxybenazamide compounds for treatment of cancer” (priority 2004, published 2006).
# Entries after “also recorded” stand apart in the source; their conditions may differ.
# How the values were obtained:
# [1] = test system: BON pancreatic carcinoid cells; assay: MTT cell proliferation assay, BON cells; format: cell-based, human; details: 100 μM, to day 10, versus DMSO
# Experimental: (§1) MTT Cell Proliferation Assay. […] Cells were trypsinized and plated in triplicate to 24 wells plates and allowed to adhere overnight. […] Cells were incubated and maintained with change of treatments at 2 days. Cell growth rates were analyzed after the addition of MTT reagent to the cultured cells following manufacturer's instructions. Absorbance was determined using spectrophotometer at a wave length of 540 nm.
# [2] = Drug toxicity assay, propidium iodide exclusion, BON cells; format: cell-based; details: human, 63 to 500 μM, read-out: viable cells by PI exclusion
# Experimental: (§2) Drug Toxicity Assay. Briefly, cells were trypsinized and plated in a 6-well plate at 1-2×10^6 in triplicate and allowed to adhere overnight. […] As a control, DMSO was added. After incubation, the media was removed and cells were trypsinized and added to removed media. Cells were incubated on ice and 2.5 μg/ml Propidium Iodide (Sigma, St. Louis, Mo.) was added five minutes before flow cytometry (Ballestrero et al., 2004). Data was acquired using a FACSCalibur benchtop flow cytometer (Becton Dickenson, San Jose, Calif.) using CellQuest acquisition and analysis software.
# [3] = test system: Panc-1; assay: Panc-1 MTT Assay; format: cell-based; design: dose or concentration left out as unconfirmed; details: Panc-1, three concentrations
# [4] = test system: pMEK and p-MAPK; assay: Western blot of pMEK and p-MAPK, HT-29 cells; format: cell-based
# From the text: (§3) The results were assay using standard MTT, Western blot and cytoxocity assays.
# [5] = Drug toxicity assay, propidium iodide exclusion, H727 cells; format: cell-based, human; details: human, 500 μM, 2 days, compared to native H727 cells, read-out: viable cells by PI exclusion
# Experimental: as §2
# [6] = test system: H727 cells; assay: as above; format: cell-based, human
# Experimental: as §2
# [7] = test system: BON pancreatic carcinoid cells; assay: cell culture pictures of BON cells; format: cell-based, human; details: 100 μM, 4 days, versus DMSO alone
# Experimental: (§4) Cell culture. Human pulmonary carcinoid cells (NCI-H727) were obtained from American Type Culture Collection (Manassas, Va.) and human pancreatic carcinoid tumor cells, BON a generous gift of Drs. Evers and Townsend (Parekh et al., 1994), were maintained in RPMI 1640 and D-MEM-F12 media (Life Technologies, Rockville, Md.) respectively supplemented with 10% Fetal Bovine Serum (Sigma, St. Louis, Mo.), 100 IU/ml penicillin and 100 μg/ml streptomycin (Life Technologies) in a humidified atmosphere of 5% CO2 in air at 37° C. The maintenance of BON-raf cells and the activation of Raf-1 were followed as described previously (Sippel et al., 2003; Sippel and Chen, 2002; McMahon, 2001).
# (§5) ZM 336372 treatment. H727 and BON cells were plated at 50-60% confluence in 100 mm cell culture dishes and incubated overnight.
# [8] = test system: Raf-1/MEK/ERK; assay: Western analysis of Raf-1 pathway activation, H727 cells; format: cell-based, human
# Experimental: (§6) H727 and BON cells were plated at 50-60% confluence in 100 mm cell culture dishes and incubated overnight.
# (§7) Western blot analysis. Cellular extracts were prepared and quantified by BCA protein assay kit (Pierce, Rockford, Ill.) as previously described (Sippel et al., 2003). 30-50 μg of denatured proteins from each sample underwent electrophoresis on a SDS-polyacrylamide gel and transferred to a nitrocellulose membranes (Schleicher and Schuell, Keene, N.H.). Membranes were blocked for 1 hr in milk solution (1×PBS, 5% non-fat dry milk, 0.05% Tween-20) and then incubated at 4° C. overnight with primary antibodies. The following primary antibody dilutions were used: phospho-ERK 1/2 (1:1,000); phospho-MEK (1:1,000); phospho-Raf-1 (Serine338) (1:1,000); p21 and p18, (1:1,000); (Cell Signal Technology, Beverly, Mass.), Chromogranin A (1:2,000; Zymed Laboratories, San Francisco, Calif.); MASH-1 (1:1000, BD Pharmingen) and G3PDH (1:10,000; Trevigen, Gaithersburg, Md.). After primary antibody incubation, membranes were washed 3×5 min in PBS-T wash buffer (1×PBS, 0.05% Tween 20). Then the membranes were incubated with either 1:2,000 dilution of goat anti-rabbit or goat anti-mouse secondary antibody (Cell Signal Technology, Beverly, Mass.) depending on the source of the primary antibody for 1 hr at room temperature. Membranes were washed 3×5 min in PBS-T wash buffer and developed by Immunstar™ HRP (Bio-Rad Laboratories, Hercules, Calif.) according to the manufacturer's directions. For the detection of hASH1 protein, membranes were developed with SuperSignal West Femto chemiluminescence reagent (Pierce).
# [9] = test system: p18; assay: Western analysis of cell cycle inhibitor p18, H727 cells; format: cell-based, human; details: 20 μM and 100 μM, 2 days
# Experimental: as §5
# as §7, with “Membranes were washed 3×5 min in PBS-T wash buffer and developed by Immunstar™ HRP (Bio-Rad Laboratories, Hercules, Calif.) according to the manufacturer's directions. For the detection of hASH1 protein, membranes were developed with SuperSignal West Femto chemiluminescence reagent (Pierce).” left out
# [10] = test system: hASH1; assay: Western analysis of hASH1, H727 cells; format: cell-based, human
# Experimental: as §5
# as §7, with “Membranes were washed 3×5 min in PBS-T wash buffer and developed by Immunstar™ HRP (Bio-Rad Laboratories, Hercules, Calif.) according to the manufacturer's directions. For the detection of hASH1 protein, membranes were developed with SuperSignal West Femto chemiluminescence reagent (Pierce).” left out
# [11] = test system: Raf-1/MEK/ERK; assay: Western analysis of Raf-1 pathway activation, BON cells; format: cell-based, human; details: 2 days
# Experimental: as §6, §7
# [12] = test system: HT-29 cells, a colon cancer cell line; assay: cell morphology after 9-day treatment, HT-29 cells; format: cell-based
# From the text: as §3
# [13] = test system: H727 pulmonary carcinoid cells; assay: cell culture pictures of H727 cells; format: cell-based, human; details: 100 μM, days 2, 4 and 6, versus DMSO
# Experimental: as §4, §5
# [14] = test system: Chromogranin A; assay: Western analysis of CgA, H727 cells; format: cell-based, human
# Experimental: as §5, §7
# [15] = test system: H727 pulmonary carcinoid cells; assay: MTT cell proliferation assay, H727 cells; format: cell-based, human; details: 100 μM, to day 16, versus DMSO
# Experimental: as §1
# [16] = test system: HT-29; assay: HT-29 MTT Assay; format: cell-based; details: HT-29, varying concentrations
# [17] = test system: Chromogranin A; assay: Western analysis of CgA, BON cells; format: cell-based, human; details: 20 to 100 μM, 2 days
# Experimental: as §5
# as §7, with “Membranes were washed 3×5 min in PBS-T wash buffer and developed by Immunstar™ HRP (Bio-Rad Laboratories, Hercules, Calif.) according to the manufacturer's directions. For the detection of hASH1 protein, membranes were developed with SuperSignal West Femto chemiluminescence reagent (Pierce).” left out
# [18] = test system: MiaPaCa-2; assay: MiaPaCa-2 MTT Assay; format: cell-based; details: MiaPaCa-2, three concentrations
# [19] = test system: p21; assay: Western analysis of cell cycle inhibitor p21, H727 cells; format: cell-based, human; details: 20 μM and 100 μM, 2 days
# Experimental: as §5
# as §7, with “Membranes were washed 3×5 min in PBS-T wash buffer and developed by Immunstar™ HRP (Bio-Rad Laboratories, Hercules, Calif.) according to the manufacturer's directions. For the detection of hASH1 protein, membranes were developed with SuperSignal West Femto chemiluminescence reagent (Pierce).” left out
smiles,measurement,setting,value
"Cc1ccc(NC(=O)c2cccc(N(C)C)c2)cc1NC(=O)c1ccc(O)cc1 [ZM336372, N-[5-(dimethyl-aminobensamido)-2-methylphenyl]-4-hydroxybenzamide]",BON cell proliferation/metabolism (MTT),[1],lack of cell metabolism; also recorded: clear suppression of growth; also recorded: growth suppression occurred as early as day 4 and was maintained out to day 10; also recorded: inhibited
same,viability at 2 days,[2],~70%
same,cellular proliferation (MTT),[3],inhibition at the highest concentration; also recorded: clear decrease
same,p-MAPK level,[4],increase in the levels of both pMEK and p-MAPK
same,pMEK level,[4],increase in the levels of both pMEK and p-MAPK
same,"viability at 2 days, 500 µM",[5],40 to 50%
same,cytolysis,[6]; 20-100 μM,less than 20%
same,viability by PI exclusion,"[6]; 20 to 100 μM, 2 days, compared to DMSO",significant viability was maintained
same,growth of BON cells in culture,[7],dramatic growth arrest; also recorded: clear difference in growth
same,"phosphorylated ERK 1/2 (pERK, pMAPK)","[8]; 20 μM and 100 μM, 2 days",elevated phosphorylated MAPK; also recorded: activation of MEK 1/2 and ERK 1/2; also recorded: dose dependent increases
same,phosphorylated MEK 1/2 (pMEK),"[8]; 20 μM and 100 μM, 2 days",activation of MEK 1/2 and ERK 1/2; also recorded: dose dependent increases
same,phosphorylated Raf-1 at serine 338 (pRaf-1),"[8]; 20 μM and 100 μM, 2 days",phosphorylated at serine 338; also recorded: dose dependent increases
same,phosphorylated MEK 1/2 over time,"[8]; 100 μM, days 2, 4 and 6",prolonged; also recorded: greater than controls out to 6 days
same,p18 expression,[9],induced; also recorded: significant induction
same,hASH1 level,"[10]; 20 μM and 100 μM, 2 days",reduction in both CgA and hASH1; also recorded: dose dependent decrease
same,time of first recognized reduction of hASH1,"[10]; 100 μM, 10 minutes to 48 hours",1 h
same,phosphorylated Raf-1 at serine 338 (pRaf-1),[11]; 20 μM and 100 μM,dose dependent increases
same,"phosphorylated ERK 1/2 (pERK, pMAPK)",[11]; 20 to 100 μM,increased phosphorylation of both MEK and MAPK; also recorded: strong activation of ERK 1/2 and MEK 1/2; also recorded: increasing phosphorylated MEK and MAP kinase; also recorded: dose dependent increases
same,phosphorylated MEK 1/2 (pMEK),[11]; 20 to 100 μM,increased phosphorylation of both MEK and MAPK; also recorded: strong activation of ERK 1/2 and MEK 1/2; also recorded: increasing phosphorylated MEK and MAP kinase; also recorded: dose dependent increases
same,cell death,"[12]; HT-29, 100 μM, 9-day cycle",significant cell death
same,number of cells in culture,"[12]; HT-29, 50 microM, day 9, versus control",dramatic difference in the number of cells present at day 9
same,cytopathology,"[12]; HT-29, low concentrations, 9-day cycle",cytopathology at low concentrations
same,growth of H727 cells in culture,[13],never reached confluence; also recorded: clear difference in growth; also recorded: paucity of cells reaching confluence
same,CgA level,"[14]; 20 μM and 100 μM, 2 days",reduction in both CgA and hASH1; also recorded: dose dependent decrease
same,time of earliest detected reduction of CgA,"[14]; 100 μM, 10 minutes to 48 hours",1 h
same,time of greatest comparative loss of CgA,"[14]; 100 μM, 10 minutes to 48 hours",48 h
same,CgA level over days,"[14]; 100 μM, days 2, 4 and 6",decrease in chromogranin; also recorded: CgA depletion was maintained to 6 days; also recorded: persistent reduction of CgA to day 6
same,H727 cell proliferation (MTT),[15],clear suppression of growth; also recorded: growth suppressed; also recorded: inhibited
same,cellular proliferation (MTT),[16],effects at low concentrations; also recorded: effective at decreasing cellular proliferation
same,CgA (chromogranin) level,[17],decreased secretion of chromogranin; also recorded: reduction in both CgA and hASH1; also recorded: decreasing expression of chromogranin at higher concentrations; also recorded: dose dependent decrease
same,cellular proliferation (MTT),[18],inhibition at the highest concentration; also recorded: reduction of cellular proliferation
same,p21 expression,[19],induced; also recorded: significant induction
